Measured values published in US8481696B2, “Glycosylated glycopeptide antibiotic derivatives” (Shionogi & Co., Ltd., priority 2007, dated 2013).
Converted amounts (≈) assume the structure as drawn. Where two headings read alike, the source gives them in different places.

Tests used:
E. faecalis SR7914 = test: In vitro measurement of antibacterial activity (MIC, liquid dilution method); type: cell-based; conditions: E. faecalis SR7914, vancomycin-resistant Enterococcus (VRE VanA); cation-adjusted Muller Hinton liquid medium; read-out: MIC (minimum growth inhibition concentration)
Protocol: (§1) Some of the present compounds were measured for a minimum growth inhibition concentration (MIC) by a small amount of liquid dilution method using a cation-adjusted Muller Hinton liquid medium well-known to a person skilled in the art.

E. faecium SR7940 = test: as above; type: cell-based; conditions: Enterococcus faecium
Protocol: as §1

[1] = E. faecium SR7940, cation-adjusted Muller Hinton liquid medium, read-out: MIC (minimum growth inhibition concentration)

Row | Structure (SMILES) | MIC (E. faecalis SR7914) | MIC (E. faecium SR7940; [1]) | MIC (E. faecium SR7940; SR7940, read-out: MIC (minimum growth inhibition concentration))
1 | CN[C@H](CC(C)C)C(=O)NC1C(=O)N[C@@H](CC(N)=O)C(=O)N[C@H]2C(=O)N[C@H]3C(=O)N[C@H](C(=O)N[C@@H](C(=O)O)c4cc(O)cc(O)c4-c4cc3ccc4O)[C@H](O[C@H]3C[C@](C)(NCc4cccnc4)[C@@H](O)[C@H](C)O3)c3ccc(c(Cl)c3)Oc3cc2cc(c3O[C@@H]2O[C@H](CO)[C@@H](O[C@@H]3O[C@H](CNCc4cccc(NC(=O)c5cccc(OC(F)(F)F)c5)c4)[C@H](O)[C@H](O)[C@H]3O)[C@H](O)[C@H]2O)Oc2ccc(cc2Cl)[C@H]1O (stereo partly drawn) [Example 31] | 2 to 4 mg/L (≈ 1 to 2.01 µM) | 1 to 4 mg/L (≈ 0.501 to 2.01 µM) | 
2 | CN[C@H](CC(C)C)C(=O)NC1C(=O)NC(CC(N)=O)C(=O)N[C@H]2C(=O)NC3C(=O)N[C@H](C(=O)N[C@H](C(=O)O)c4cc(O)cc(O)c4-c4cc3ccc4O)[C@H](OC3C[C@](C)(N)[C@@H](O)[C@H](C)O3)c3ccc(c(Cl)c3)Oc3cc2cc(c3O[C@@H]2O[C@H](CO)[C@@H](O[C@@H]3O[C@H](CNCc4ccc(-c5ccc(Cl)cc5)nc4)[C@H](O)[C@H](O)[C@H]3O)[C@H](O)[C@H]2O)Oc2ccc(cc2Cl)[C@H]1O (stereo partly drawn) [Example 45] | 2 to 4 mg/L (≈ 1.1 to 2.21 µM) | 1 to 4 mg/L (≈ 0.552 to 2.21 µM) | 
3 | CN[C@H](CC(C)C)C(=O)NC1C(=O)NC(CC(N)=O)C(=O)N[C@H]2C(=O)NC3C(=O)N[C@H](C(=O)NC(C(=O)O)c4cc(O)cc(O)c4-c4cc3ccc4O)[C@H](O[C@H]3C[C@](C)(N)[C@@H](O)[C@H](C)O3)c3ccc(c(Cl)c3)Oc3cc2cc(c3O[C@@H]2O[C@H](CO)[C@@H](O[C@@H]3O[C@H](CNCc4ccc(-c5ccc(F)c(F)c5)nc4)[C@H](O)[C@H](O)[C@H]3O)[C@H](O)[C@H]2O)Oc2ccc(cc2Cl)[C@H]1O (stereo partly drawn) [Example 88] | 2 to 4 mg/L (≈ 1.1 to 2.21 µM) | 1 to 4 mg/L (≈ 0.551 to 2.21 µM) | 
4 | CN[C@H](CC(C)C)C(=O)N[C@H]1C(=O)N[C@@H](CC(N)=O)C(=O)N[C@H]2C(=O)N[C@H]3C(=O)N[C@H](C(=O)N[C@@H](C(=O)O)c4cc(O)cc(O)c4-c4cc3ccc4O)[C@H](OC3C[C@](C)(N)[C@@H](O)[C@H](C)O3)c3ccc(c(Cl)c3)Oc3cc2cc(c3O[C@@H]2O[C@H](CO)[C@@H](O[C@@H]3O[C@H](CNCc4ccc(C(=O)NCc5ccc(Cl)c(Cl)c5)cc4)[C@H](O)[C@H](O)[C@H]3O)[C@H](O)[C@H]2O)Oc2ccc(cc2Cl)[C@H]1O (stereo partly drawn) [Example 69] | 2 to 4 mg/L (≈ 1.05 to 2.1 µM) | 1 to 4 mg/L (≈ 0.526 to 2.1 µM) | 
5 | CN[C@H](CC(C)C)C(=O)N[C@H]1C(=O)N[C@@H](CC(N)=O)C(=O)N[C@H]2C(=O)N[C@H]3C(=O)N[C@H](C(=O)N[C@@H](C(=O)O)c4cc(O)cc(O)c4-c4cc3ccc4O)[C@H](O[C@H]3C[C@](C)(N)[C@@H](O)[C@H](C)O3)c3ccc(c(Cl)c3)Oc3cc2cc(c3O[C@@H]2O[C@H](CO)[C@@H](O[C@@H]3O[C@H](CNCc4ccc(-c5cc(F)cc(F)c5)s4)[C@H](O)[C@H](O)[C@H]3O)[C@H](O)[C@H]2O)Oc2ccc(cc2Cl)[C@H]1O [Example 82] | 2 to 4 mg/L (≈ 1.1 to 2.2 µM) | 1 to 4 mg/L (≈ 0.55 to 2.2 µM) | 
6 | CN[C@H](CC(C)C)C(=O)N[C@H]1C(=O)N[C@@H](CC(N)=O)C(=O)N[C@H]2C(=O)N[C@H]3C(=O)N[C@H](C(=O)N[C@@H](C(=O)O)c4cc(O)cc(O)c4-c4cc3ccc4O)[C@H](O[C@H]3C[C@](C)(N)[C@@H](O)[C@H](C)O3)c3ccc(c(Cl)c3)Oc3cc2cc(c3O[C@@H]2O[C@H](CO)[C@@H](O[C@@H]3O[C@H](CNCc4ccc(-c5ccc(OC)cc5)s4)[C@H](O)[C@H](O)[C@H]3O)[C@H](O)[C@H]2O)Oc2ccc(cc2Cl)[C@H]1O [Example 83] | 2 to 4 mg/L (≈ 1.1 to 2.21 µM) | 1 to 4 mg/L (≈ 0.552 to 2.21 µM) | 
7 | CN[C@H](CC(C)C)C(=O)NC1C(=O)NC(CC(N)=O)C(=O)N[C@H]2C(=O)NC3C(=O)N[C@H](C(=O)N[C@H](C(=O)O)c4cc(O)cc(O)c4-c4cc3ccc4O)[C@H](O[C@H]3C[C@](C)(N)[C@@H](O)[C@H](C)O3)c3ccc(c(Cl)c3)Oc3cc2cc(c3O[C@@H]2O[C@H](CO)[C@@H](O[C@@H]3O[C@H](CNCCn4ccc(NC(=O)c5ccc(OC(F)(F)F)cc5)nc4=O)[C@H](O)[C@H](O)[C@H]3O)[C@H](O)[C@H]2O)Oc2ccc(cc2Cl)[C@H]1O (stereo partly drawn) [Example 11] | 2 to 4 mg/L (≈ 1.03 to 2.07 µM) | 1 to 4 mg/L (≈ 0.517 to 2.07 µM) | 
8 | CN[C@H](CC(C)C)C(=O)NC1C(=O)NC(CC(N)=O)C(=O)N[C@H]2C(=O)NC3C(=O)N[C@H](C(=O)N[C@H](C(=O)O)c4cc(O)cc(O)c4-c4cc3ccc4O)[C@H](OC3C[C@](C)(N)[C@@H](O)[C@H](C)O3)c3ccc(c(Cl)c3)Oc3cc2cc(c3O[C@@H]2O[C@H](CO)[C@@H](O[C@@H]3O[C@H](CNCc4ccc(-c5cccc(F)c5)s4)[C@H](O)[C@H](O)[C@H]3O)[C@H](O)[C@H]2O)Oc2ccc(cc2Cl)[C@H]1O (stereo partly drawn) [Example 43] | 2 to 4 mg/L (≈ 1.11 to 2.22 µM) | 1 to 4 mg/L (≈ 0.555 to 2.22 µM) | 
9 | CN[C@H](CC(C)C)C(=O)NC1C(=O)N[C@@H](CC(N)=O)C(=O)N[C@H]2C(=O)N[C@H]3C(=O)N[C@H](C(=O)N[C@@H](C(=O)O)c4cc(O)cc(O)c4-c4cc3ccc4O)[C@H](O[C@H]3C[C@](C)(NCc4c[nH]cn4)[C@@H](O)[C@H](C)O3)c3ccc(c(Cl)c3)Oc3cc2cc(c3O[C@@H]2O[C@H](CO)[C@@H](O[C@@H]3O[C@H](CNCc4cccc(NC(=O)c5cccc(OC(F)(F)F)c5)c4)[C@H](O)[C@H](O)[C@H]3O)[C@H](O)[C@H]2O)Oc2ccc(cc2Cl)[C@H]1O (stereo partly drawn) [Example 30] | 2 to 4 mg/L (≈ 1.01 to 2.02 µM) | 1 to 4 mg/L (≈ 0.504 to 2.02 µM) | 
10 | CN[C@H](CC(C)C)C(=O)N[C@H]1C(=O)N[C@@H](CC(N)=O)C(=O)N[C@H]2C(=O)N[C@H]3C(=O)N[C@H](C(=O)N[C@@H](C(=O)O)c4cc(O)cc(O)c4-c4cc3ccc4O)[C@H](OC3C[C@](C)(N)[C@@H](O)[C@H](C)O3)c3ccc(c(Cl)c3)Oc3cc2cc(c3O[C@@H]2O[C@H](CO)[C@@H](O[C@@H]3O[C@H](CNCc4ccc(-c5cccs5)s4)[C@H](O)[C@H](O)[C@H]3O)[C@H](O)[C@H]2O)Oc2ccc(cc2Cl)[C@H]1O (stereo partly drawn) [Example 75] | 2 to 4 mg/L (≈ 1.12 to 2.24 µM) | 1 to 4 mg/L (≈ 0.559 to 2.24 µM) | 
11 | CN[C@H](CC(C)C)C(=O)N[C@H]1C(=O)N[C@@H](CC(N)=O)C(=O)N[C@H]2C(=O)N[C@H]3C(=O)NC(C(=O)N[C@@H](C(=O)O)c4cc(O)cc(O)c4-c4cc3ccc4O)[C@H](O)c3ccc(c(Cl)c3)Oc3cc2cc(c3OC2O[C@H](CO)[C@@H](O)[C@H](O)[C@H]2OC2C[C@](C)(N)[C@H](O)[C@H](C)O2)Oc2ccc(cc2Cl)[C@H]1O (stereo partly drawn) [vancomycin, reference compound] |  |  | > 64 mg/L
12 | CN[C@H](CC(C)C)C(=O)NC1C(=O)N[C@@H](CC(N)=O)C(=O)N[C@H]2C(=O)N[C@H]3C(=O)N[C@H](C(=O)N[C@@H](C(=O)O)c4cc(O)cc(O)c4-c4cc3ccc4O)[C@H](OC3C[C@](C)(N)[C@@H](O)[C@H](C)O3)c3ccc(c(Cl)c3)Oc3cc2cc(c3O[C@@H]2O[C@H](CO)[C@@H](O[C@@H]3O[C@H](CNCc4ccc(Oc5ccc(F)cc5)cc4)[C@H](O)[C@H](O)[C@H]3O)[C@H](O)[C@H]2O)Oc2ccc(cc2Cl)[C@H]1O (stereo partly drawn) [Example 50] | 2 to 4 mg/L (≈ 1.1 to 2.21 µM) | 1 to 4 mg/L (≈ 0.552 to 2.21 µM) | 
13 | CN[C@H](CC(C)C)C(=O)N[C@H]1C(=O)N[C@@H](CC(N)=O)C(=O)N[C@H]2C(=O)N[C@H]3C(=O)N[C@H](C(=O)N[C@@H](C(=O)O)c4cc(O)cc(O)c4-c4cc3ccc4O)[C@H](OC3C[C@](C)(N)[C@@H](O)[C@H](C)O3)c3ccc(c(Cl)c3)Oc3cc2cc(c3O[C@@H]2O[C@H](CO)[C@@H](O[C@@H]3O[C@H](CNCc4ccc(-n5cccc5)cc4)[C@H](O)[C@H](O)[C@H]3O)[C@H](O)[C@H]2O)Oc2ccc(cc2Cl)[C@H]1O (stereo partly drawn) [Example 65] | 2 to 4 mg/L (≈ 1.13 to 2.27 µM) | 1 to 4 mg/L (≈ 0.566 to 2.27 µM) | 
14 | CN[C@H](CC(C)C)C(=O)NC1C(=O)N[C@@H](CC(N)=O)C(=O)N[C@H]2C(=O)N[C@H]3C(=O)N[C@H](C(=O)N[C@@H](C(=O)O)c4cc(O)cc(O)c4-c4cc3ccc4O)[C@H](O[C@H]3C[C@](C)(N)[C@@H](O)[C@H](C)O3)c3ccc(c(Cl)c3)Oc3cc2cc(c3O[C@@H]2O[C@H](CO)[C@@H](O[C@@H]3O[C@H](CNCc4ccc(-c5ccc(Cl)cc5)s4)[C@H](O)[C@H](O)[C@H]3O)[C@H](O)[C@H]2O)Oc2ccc(cc2Cl)[C@H]1O (stereo partly drawn) [Example 13] | 2 to 4 mg/L (≈ 1.1 to 2.2 µM) | 1 to 4 mg/L (≈ 0.55 to 2.2 µM) | 
